Columns and labels:
Type in all cases: in vivo
[1] = system: diamondback moth (Plutella xylostella); test: Insecticidal effect on diamondback moth (Test Example 1); conditions: mortality judged according to the criterion shown in Test Example 1
Procedure, shortened: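 Oviposition by adults on Chinese cabbage seedling; immersion; air-dry; 25° C room. Count of hatched larvae at day 6 post-immersion → mortality → effect graded by criterion. Triplicate, 10 insects/group.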

[2] = system: rice leafroller (Cnaphalocrocis medinalis); test: Insecticidal effect on rice leafroller (Test Example 3); conditions: 500 ppm, rice lamina dip, third-instar larvae, four days after inoculation, 25° C., humidity 70%
Procedure, shortened: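 Insecticidal effect is judged by a predefined criterion from dead/alive counts four days after infesting air-dried lamina with third-instar larvae, kept on moistened filter paper at 25° C, 70% humidity.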

[3] = system: common cutworm (Spodoptera Litura); test: Insecticidal effect on common cutworm (Test Example 2); conditions: 500 ppm, cabbage leaf dip, second-instar larvae, eight days after inoculation, 25° C.
Procedure, shortened: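 Mortality was scored 8 days post-inoculation, using three groups of 10 second-instar larvae kept at 25 °C in closed 9 cm dishes on air-dried treated material. The insecticidal effect was graded from calculated mortality by a set criterion.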

| Compound | Insecticidal effect on diamondback moth (Test Example 1), judged grade [1] | Insecticidal effect on rice leafroller (Test Example 3), judged grade [2] | Insecticidal effect on common cutworm (Test Example 2), judged grade [3] |
| --- | --- | --- | --- |
| CC(C)NC(=O)c1cccc(F)c1C(=O)Nc1ccc(OC(F)F)cc1C(F)(F)F [compound 579] | A (100) | A (100) | A (100) |
| Cc1cc(OC(F)F)ccc1NC(=O)c1c(F)ccc(F)c1C(=O)NC(C)C [compound 581] | A (100) | A (100) | B (99-90) |
| CC(C)NC(=O)c1c(C(=O)Nc2ccc(I)cc2)cccc1[N+](=O)[O-] [compound 595] | A (100) | A (100) | A (100) |
| Cc1ccccc1NC(=O)c1cccc([N+](=O)[O-])c1C(=O)NC(C)C [compound 599] | A (100) | A (100) | D (79-50) |
| CC(C)NC(=O)c1c(C(=O)Nc2ccc(C(F)(F)F)cc2)cccc1[N+](=O)[O-] [compound 606] | A (100) | A (100) | D (79-50) |
| CC(C)NC(=O)c1c(C(=O)Nc2cccc(C(F)(F)F)c2)cccc1[N+](=O)[O-] [compound 607] | A (100) | A (100) | A (100) |
| CC(C)NC(=O)c1c(C(=O)Nc2ccc(C(F)(F)C(F)(F)C(F)(F)F)cc2)cccc1[N+](=O)[O-] [compound 609] | A (100) | A (100) | B (99-90) |
| CC(C)NC(=O)c1c(C(=O)Nc2ccc(C(F)(C(F)(F)F)C(F)(F)F)cc2)cccc1[N+](=O)[O-] [compound 610] | A (100) | C (89-80) | A (100) |
| CC(C)NC(=O)c1c(C(=O)Nc2ccc(OC(F)F)cc2)cccc1[N+](=O)[O-] [compound 617] | A (100) | A (100) | A (100) |
| CC(C)NC(=O)c1c(C(=O)Nc2ccc(OC(F)(F)F)cc2)cccc1[N+](=O)[O-] [compound 618] | A (100) | A (100) | A (100) |
| CC(C)NC(=O)c1c(C(=O)Nc2ccc(OC(F)(F)C(F)OC(F)(F)C(F)(F)C(F)(F)F)cc2)cccc1[N+](=O)[O-] (stereo not drawn) [compound 619] | A (100) | A (100) | A (100) |
| CC(C)NC(=O)c1c(C(=O)Nc2ccc(SC(F)F)cc2)cccc1[N+](=O)[O-] [compound 625] | A (100) | D (79-50) | D (79-50) |
| CC(C)NC(=O)c1c(C(=O)Nc2ccc(SC(F)(F)C(F)(F)Br)cc2)cccc1[N+](=O)[O-] [compound 628] | A (100) | A (100) | B (99-90) |
| CC(C)NC(=O)c1c(C(=O)Nc2ccc(Cl)c(Cl)c2)cccc1[N+](=O)[O-] [compound 636] | A (100) | A (100) | D (79-50) |

Reference: patent publication US6362369B1, “Phthalic acid diamide derivatives fluorine-containing aniline compounds as starting material, agricultural and horticultural insecticides, and a method for application of the insecticides” (Nihon Nohyaku Co., Ltd., priority 1997, dated 2002)
